Source: patent US20240091306A1 (Dompe' Farmaceutici SPA, priority 2020, published 2024)

What was measured:
HUVECs [1] = test: Angiogenic activity assay on BME-coated wells, stressed HUVECs; type: cell-based, human
Experimental: (§1) Low passage HUVECs were grown under stressed (serum starved; 0.5% FBS) conditions for 16 h in endothelial basal medium (EBM) and then harvested and resuspended in complete medium containing 10% FBS.
(§2) Cells were seeded (5×10^4 cells per well) in wells coated with growth factor-reduced Cultrex basement membrane extract (BME; Trevigen Gaithersburg, MD, USA) and left untreated (NT) or treated with 10 ng/ml of GST, p24, p17 or each p17-derived peptide F1 to F8.
Data are the means±SD of three independent experiments with similar results.
Statistical analysis was performed by one-way ANOVA and the Bonferroni post-test was used to compare data (***P<0.001).

HUVECs [2] = test: Angiogenic activity assay under normal and stressed condition; type: cell-based, human; conditions: 10 ng/ml
Experimental: Low passage HUVECs were grown under normal (10% FBS) or stressed (serum starved; 0.5% FBS) conditions for 16 h in endothelial basal medium (EBM) and then harvested and resuspended in complete medium containing 10% FBS. […]
An EPO-derived 11 amino acids-long peptide (EPO peptide—SEQ ID No. 10) and a F3-derived 16 amino acids-long peptide (F3S—SEQ ID No. 9) were synthetized and tested at 10 ng/ml for their angiogenic activity under the same procedure of Example 7.

[3] = system: full-thickness excisional skin wounds; test: In vivo wound-healing assay in diabetic mice; parameters: species or system spontaneously diabetic (db/db) mice; conditions: db/db mice, topical daily, 1.0 μg/50 μL days 0 to 7 and 10 μg/50 μL days 8 to 13; days 8 to 14 (p≤0.035)
From the text: Patients with diabetes are prone to impaired wound healing, with foot ulceration being particularly prevalent. This delay in wound healing also extends to animal models of diabetes. The impact of the EPO peptide (DSRVLERYLLE, corresponding to SEQ ID No. 10) on wound healing was therefore investigated by in vivo experiments on spontaneously diabetic (db/db) mice (i.e., BKS.Cg-m Dock7^m+/+Lepr^db/J mice).
In this study, the healing of full-thickness excisional skin wounds on the flanks of diabetic mice in receipt of the EPO peptide was compared to that of wounds in receipt of negative control (Water for Injection) treatment. The overall wound closure (i.e. the reduction in open wound area) was determined over time by taking scaled wound images of each wound at each assessment point.
EPO Peptide (DFL24435) was solubilized at 200 μg/mL (10 μg per 50 μL) in sterile water for injection, aliquoted into 100 μL volumes, stored at −20° C., defrosted on the day of use and diluted as necessary.
The animals were divided in a control group, that was treated with water for injection, and a EPO peptide group, that was treated with the peptide. Treatment was carried out once a day on post-wounding days 0 to 13 and the animals were sacrificed on day 14. […]

aortic rings = test: Rat aortic ring assay (ex vivo); type: cell-based, Sprague-Dawley rats; conditions: 10 days
Experimental: Briefly, the dorsal aorta was excised from 6-wk-old Sprague-Dawley rats. Rings, 1-mm thick, were embedded in collagen gel and then incubated with serum-free EBM containing PBS, peptide F2 (10 ng/ml), peptide F3 (10 ng/ml), or FGF-2 (50 ng/ml) (Thermo Fisher Scientific, Rodano, Italy). The plates were incubated for 10 days and angiogenesis was quantified by counting the number of microvessels originating from aortic rings.

HUVECs [4] = test: Wound-healing assay (EC migration); type: cell-based, human; conditions: 10 ng/ml; for effect on HUVEC migration: 12 h; for healing: after 12 h of culture
Experimental: The involvement of peptide F2 and F3 in promoting EC migration was evaluated by performing a wound healing assay.
HUVECs were plated on 24-well plates (10^5 cells per well) in complete medium containing 10% FBS. Confluent monolayers were nutrient starved for 16 h and then scratched using a 200 μI pipette tip. After being washed, cells were left untreated or treated with 10 ng/ml of GST, p24, p17, or each p17-derived peptide F1 to F8.

HAECs = test: Angiogenic activity assay on HAECs; type: cell-based, human; conditions: HAECs (aorta)
Experimental: (§3) Human aortic endothelial cells (HAECs) and Human lung microvascular endothelial cells (HMVEC-Ls) were purchased from Clonetics (San Diego, CA, USA) and cultured in EGM-2MV (Lonza) containing 10% (vol/vol) FBS.
as §1, §2
(§4) Similar results were obtained by using human ECs derived from different origin, such as aorta (HAECs), lung (HMVEC-Ls) and lymph node (LN-LECs) (FIGS. 3, 4 and 5, respectively).

HMVEC-Ls = test: Angiogenic activity assay on HMVEC-Ls; type: cell-based, human; conditions: HMVEC-Ls (lung)
Experimental: as §3, §1, §2, §4

LN-LECs = test: Angiogenic activity assay on LN-LECs; type: cell-based, human; conditions: LN-LECs (lymph node)
Experimental: Human primary lymph node-derived endothelial cells (LN-LECs) have been developed and characterized as described in Norder et al, FASEB J, 2012; 26:2835-2846.
LN-LECs were cultured in EGM (Lonza) containing 10% FBS and supplemented with VEGF-C (25 ng/ml) (Reliatech, Wolfenbuettel, Germany).
as §1, §2, §4

[5] = system: chick chorioallantoic membrane (CAM); test: Chick chorioallantoic membrane (CAM) assay; type: in vivo, White Leghorn chicken; conditions: 100 ng on gelatin sponge, day 12
Experimental: The vasculogenic activity of peptide F2 and F3 was further characterized by in vivo experiments by using the chick chorioallantoic membrane (CAM) assay.
Fertilized White Leghorn chicken eggs (30 per group) were incubated at 37° C. at constant humidity. On day 3, a square window was opened in the shell, and 2-3 ml of albumin was removed to allow detachment of the developing CAM. The window was sealed with a glass, and the eggs were returned to the incubator. On day 8, eggs were treated with 1 mm 3 sterilized gelatin sponges (Gelfoam; Upjohn, Kalamazoo, MI, USA) placed on top of the growing CAM, as described in Ribatti D et al, Nat Protoc, 2006; 1:85-91, and loaded with 1 μl of PBS (negative control), 1 μl of PBS containing 100 ng of peptide F2 or F3. CAMs were examined daily until day 12 and photographed in ovo with a stereomicroscope equipped with a camera and image analyzer system (Olympus, Hamburg, Germany). At day 12, the angiogenic response was evaluated by the image analyzer system and counted as the number of vessels converging toward the sponge.

HUVECs [6] = test: Angiogenic activity assay with CXCR1 and CXCR2 inhibition; type: cell-based, human; conditions: stressed HUVECs, peptide 10 ng/ml, preincubation 1 hour with 2.5 μg/ml mAb
Experimental: as §1
Cells were seeded (5×10^4 cells per well) in wells coated with growth factor-reduced Cultrex basement membrane extract (BME; Trevigen Gaithersburg, MD, USA) and left untreated (NT) or treated with 10 ng/ml of each p17-derived peptide F1 or F2, after preincubation for 1 hour at 37° C. with 2.5 μg/ml of a control isotype-matched mAb (Ctrl mAb), a neutralizing mAb to CXCR1 and/or a neutralizing mAb to CXCR2.

endothelial cells = test: Involvement of autophagy-based pathway in angiogenic activity; type: cell-based
[7] = He W et al. 2019; cited from earlier work
CXCR1 = CXCR1 (Homo sapiens, UniProt P25024); conditions: He W et al. 2019; cited from earlier work
Chain of CXCR1 (P25024 whole entry): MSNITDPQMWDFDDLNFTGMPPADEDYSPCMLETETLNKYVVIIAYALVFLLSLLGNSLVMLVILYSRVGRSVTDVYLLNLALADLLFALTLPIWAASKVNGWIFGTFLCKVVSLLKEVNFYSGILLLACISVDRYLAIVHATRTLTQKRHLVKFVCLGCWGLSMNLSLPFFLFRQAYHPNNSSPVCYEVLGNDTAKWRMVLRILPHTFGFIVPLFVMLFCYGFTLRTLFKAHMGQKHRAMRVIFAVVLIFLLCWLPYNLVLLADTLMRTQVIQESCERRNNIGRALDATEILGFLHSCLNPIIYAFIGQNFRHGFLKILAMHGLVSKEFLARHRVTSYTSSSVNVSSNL

CXCR2 = CXCR2 (Homo sapiens, UniProt P25025); conditions: He W et al. 2019; cited from earlier work
Chain of CXCR2 (P25025 whole entry): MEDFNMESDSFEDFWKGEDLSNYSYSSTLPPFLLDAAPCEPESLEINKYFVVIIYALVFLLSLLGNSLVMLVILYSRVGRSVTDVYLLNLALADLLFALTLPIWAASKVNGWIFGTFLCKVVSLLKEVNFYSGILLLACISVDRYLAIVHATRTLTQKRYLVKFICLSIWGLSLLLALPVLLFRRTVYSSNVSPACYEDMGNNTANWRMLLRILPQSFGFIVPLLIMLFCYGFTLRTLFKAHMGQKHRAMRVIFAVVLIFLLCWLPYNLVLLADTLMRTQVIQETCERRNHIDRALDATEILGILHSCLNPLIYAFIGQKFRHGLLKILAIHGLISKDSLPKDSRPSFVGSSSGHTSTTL

B cell = conditions: He W et al. 2019; cited from earlier work
[8] = HUVECs, as example 2, 10 ng of the peptide
[9] = normal (10% FBS) culture conditions
[10] = stressed (serum starved; 0.5% FBS) conditions
[11] = HUVECs stressed (serum starved; 0.5% FBS) 16 h, 10 ng/ml

Q: Which angiogenic activity (HUVECs [1]; [8]) does the source give for ASRELERF (ASRELERFLLE) here?
A: Its angiogenic activity is “able to significantly promote angiogenesis”.

Q: For ASRELERFACNPGLME [peptide cpz], which angiogenic activity (HUVECs [1]; [8]) is on record?
A: Its angiogenic activity is “able to significantly promote angiogenesis”.

Q: What does the source list for “DSRVLERYLLE [EPO peptide, EPO-derived 11 amino acids-long peptide]”?
A: angiogenic activity (HUVECs [2]; [9]): potent angiogenic activity; angiogenic activity (HUVECs [2]; [10]): potent angiogenic activity; wound closure (reduction in open wound area) compared to vehicle [3]: significantly increased closure

Q: With “FGF-2: FGF-2 (Thermo Fisher Scientific), positive control in aortic ring assay [reference compound]” as the substance, how does the “number of microvessels originating from aortic rings” value (aortic rings; 50 ng/ml) read?
A: Its value is 84±6.

Q: For “ASRELERFAVNPGLLE [Peptide F3S, F3-derived 16 amino acids-long peptide]”, which angiogenic activity (HUVECs [2]; [9]) is on record?
A: Its angiogenic activity is “potent angiogenic activity”.

Q: And the angiogenic activity (HUVECs [2]; [10])?
A: The angiogenic activity was “potent angiogenic activity”.

Q: With AANELDRFLLE [SIVcpz-derived peptide] as the substance, how does the angiogenic activity (HUVECs [1]; [8]) read?
A: The angiogenic activity was “able to significantly promote angiogenesis”.

Q: Which results are given for “glutathione S-transferase [GST, reference compound]”?
A: angiogenic activity (HUVECs [1]; [11]): did not induce any pro-angiogenic activity; effect on HUVEC migration (HUVECs [4]): did not exert any effect

Q: With EKIRLRPGGKKKYKLKHIVW [Peptide F2] as the substance, how does the angiogenic activity (HUVECs [1]; [11]) read?
A: Its angiogenic activity is “endowed with angiogenic activity”.

Q: And the angiogenic activity (HAECs)?
A: The angiogenic activity was “potent angiogenic activity”.

Q: And the angiogenic activity (HMVEC-Ls)?
A: Its angiogenic activity is “potent angiogenic activity”.

Q: And the angiogenic activity (LN-LECs)?
A: Its angiogenic activity is “potent angiogenic activity”.

Q: And the “effect on HUVEC migration” value (HUVECs [4])?
A: Its value is “comparable to that exerted by p17”.

Q: And the healing (HUVECs [4])?
A: The healing was about 100%.

Q: What about the “number of microvessels originating from aortic rings” value (aortic rings; 10 ng/ml) of the same substance?
A: Its value is 55±5.

Q: What about the “mean number of vessels converging toward the sponge” value [5] of the same substance?
A: Its value is 27±4.

Q: What about the “effect of neutralizing mAb to CXCR1 and CXCR2 on peptide-induced angiogenesis” value (HUVECs [6]) of the same substance?
A: The value was “inhibitory”.

Q: And the angiogenic activity (HUVECs [2]; [9])?
A: Its angiogenic activity is “promoting angiogenesis under stress condition only”.

Q: And the angiogenic activity (HUVECs [2]; [10])?
A: Its angiogenic activity is “potent angiogenic activity”.

Q: And the “involvement of autophagy-based pathway in angiogenic activity” value (endothelial cells)?
A: Its value is “involves an autophagy-based pathway”.

Q: And the binding to heparin [7]?
A: Its binding to heparin is “capable to bind”.

Q: What about the “binding to CXCR1 receptor” value (CXCR1) of the same substance?
A: Its value is “capable to bind”.

Q: What about the “binding to CXCR2 receptor” value (CXCR2) of the same substance?
A: Its value is “capable to bind”.

Q: Which results are given for “KHIVWASRELERFAVNPGLL [Peptide F3, p17-derived 20 amino acid peptide]”?
A: angiogenic activity (HUVECs [1]; [11]): endowed with angiogenic activity; angiogenic activity (HAECs): potent angiogenic activity; angiogenic activity (HMVEC-Ls): potent angiogenic activity; angiogenic activity (LN-LECs): potent angiogenic activity; effect on HUVEC migration (HUVECs [4]): comparable to that exerted by p17; healing (HUVECs [4]): ~100%; number of microvessels originating from aortic rings (aortic rings; 10 ng/ml): 46±8; mean number of vessels converging toward the sponge [5]: 30±3; effect of neutralizing mAb to CXCR1 and CXCR2 on peptide-induced angiogenesis (HUVECs [6]): did not impair; angiogenic activity (HUVECs [2]; [9]): promote angiogenesis; angiogenic activity (HUVECs [2]; [10]): potent angiogenic activity; involvement of autophagy-based pathway in angiogenic activity (endothelial cells): independent from autophagy

Q: With “GARASVLSGGELDRWEKIRL [Peptide F1, p17-derived peptide, aminoacids 2 to 21 of p17]” as the substance, how does the “B cell growth promoting activity” value (B cell) read?
A: The value was “endowed with cell growth promoting activity”.

Q: Which angiogenic activity (HUVECs [1]; [8]) does the source give for ASRELERFACNPELLE [peptide gor] here?
A: Its angiogenic activity is “able to significantly promote angiogenesis”.

Q: With AANELDRF [SIVcpz-derived peptide] as the substance, how does the angiogenic activity (HUVECs [1]; [8]) read?
A: The angiogenic activity was “able to significantly promote angiogenesis”.

Q: Which angiogenic activity (HUVECs [1]; [8]) does the source give for ASRELERFLLE here?
A: The angiogenic activity was “able to significantly promote angiogenesis”.
